From ChEMBL document CHEMBL1129952, “Structure-based design of substituted diphenyl sulfones and sulfoxides as lipophilic inhibitors of thymidylate synthase” (J Med Chem, 1997)
pIC50, pKi: −log10 of the molar value. Where “and” joins values, the source holds several entries; their conditions need not be identical. Equal values may be shown once.

Columns and labels:
Thymidylate synthase [1] = target: T1, Thymidylate synthase (Homo sapiens, UniProt P04818)
Description: Binding affinity against recombinant thymidylate synthase in Escherichia coli

CCRF-CEM = test: Inhibitory activity against human CCRF-CEM leukemic cell lines.
Thymidylate synthase [2] = target: T1, Thymidylate synthase; remark: listed apart in the source
Description: Binding affinity against recombinant human thymidylate synthase

GC3/MTK- = test: Inhibitory activity against GC3/M TK- human adreno carcinoma cell lines.
L1210 = test: Inhibitory activity against murine L1210 leukemic cell lines.; settings: Mus musculus

T1 sequence (P04818 whole entry): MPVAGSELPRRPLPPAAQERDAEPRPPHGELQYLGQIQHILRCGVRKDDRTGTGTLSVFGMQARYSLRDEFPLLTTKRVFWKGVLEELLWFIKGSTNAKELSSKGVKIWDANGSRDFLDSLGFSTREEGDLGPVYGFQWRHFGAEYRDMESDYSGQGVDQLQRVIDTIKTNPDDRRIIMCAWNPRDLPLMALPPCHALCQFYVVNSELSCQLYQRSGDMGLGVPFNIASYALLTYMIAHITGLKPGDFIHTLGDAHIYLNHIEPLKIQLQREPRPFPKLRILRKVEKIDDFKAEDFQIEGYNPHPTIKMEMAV

Structure (SMILES) | pKi (Thymidylate synthase [1]) | pIC50 (CCRF-CEM) | pKi (Thymidylate synthase [2]) | pIC50 (GC3/MTK-) | pIC50 (L1210)
C#CCN(Cc1ccc2nc(C)nc(O)c2c1)c1ccc(S(=O)(=O)c2ccccc2)c(F)c1 | 7.37 and 7.13 | 5.70 | 7.70 and 7.34 | 5.55 | 5.92
C#CCN(Cc1ccc2nc(C)[nH]c(=O)c2c1)c1ccc([S+]([O-])c2ccccc2)cc1 (stereo not drawn) | 6.80 and 6.26 |  | 7.21 and 6.96 |  | 
C#CCN(Cc1ccc2nc(C)nc(O)c2c1)c1ccc([S+]([O-])c2ccccc2C)c(C(F)(F)F)c1 (stereo not drawn) | 6.54 and 6.04 | 5.52 | 6.59 and 6.41 | 5.04 | 6.00
C#CCN(Cc1ccc2nc(C)nc(O)c2c1)c1ccc([S+]([O-])c2ccccc2C)cc1 (stereo not drawn) | 6.60 and 6.11 | 5.46 | 7.35 and 7.11 | 5.40 | 5.77
C#CCN(Cc1ccc2nc(C)nc(O)c2c1)c1ccc([S+]([O-])c2ccccc2)c(F)c1 (stereo not drawn) | 7.06 and 6.54 | 5.85 | 7.30 and 6.92 | 5.38 | 5.68
C#CCN(Cc1ccc2nc(C)nc(O)c2c1)c1ccc(S(=O)(=O)c2ccccc2C)c(C(F)(F)F)c1 | 6.80 and 6.41 | 5.70 | 6.82 and 6.42 | < 5.30 | 6.00
C#CCN(Cc1ccc2nc(C)nc(O)c2c1)c1ccc(S(=O)(=O)c2ccccc2)c(Cl)c1 | 7.48 and 7.37 | 5.82 | 7.62 and 7.26 | 5.52 | 5.80
C#CCN(Cc1ccc2nc(C)nc(O)c2c1)c1ccc(S(=O)(=O)c2ccccc2C)cc1 | 7.25 and 6.80 | 5.57 | 7.59 and 7.24 | 5.47 | 6.22
C#CCN(Cc1ccc2nc(C)nc(O)c2c1)c1ccc([S+]([O-])c2ccccc2)c(Cl)c1 (stereo not drawn) | 7.27 and 6.89 | 5.64 | 7.57 and 7.43 | 5.42 | 6.00
C#CCN(Cc1ccc2nc(C)nc(O)c2c1)c1ccc([S+]([O-])c2ccccc2Cl)cc1 (stereo not drawn) | 6.72 and 6.12 | 5.24 | 7.34 and 7.14 | 5.37 | 5.68
C#CCN(Cc1ccc2nc(C)nc(O)c2c1)c1ccc([S+]([O-])c2ccccc2)c(C(F)(F)F)c1 (stereo not drawn) | 6.96 and 6.80 | 5.52 | 7.15 and 6.82 | 5.48 | 5.96
C#CCN(Cc1ccc2nc(C)nc(O)c2c1)c1ccc(S(=O)(=O)c2ccccc2Cl)cc1 | 7.48 and 7.16 | 6.22 | 7.68 and 7.60 | 5.92 | 6.52
C#CCN(Cc1ccc2nc(C)nc(O)c2c1)c1ccc(S(=O)(=O)c2ccccc2)cc1 |  |  |  | 5.99 | 
